Test results from patent publication US9428553B2, “Meditopes and meditope-binding antibodies and uses thereof” (City of Hope, priority 2012, dated 2016).
“Also recorded” adds a separate entry of the source. Where a SMILES comes first, the peptide text is derived from it. Bridges are numbered along the chain shown (N, C = ends). Where no end group is shown, it is not given here.

Legend:
cetuximab Fab = experiment: SPR, meditopes over cetuximab Fab immobilized on CM5 chip; format: binding; conditions: relative to WT cQFD
Procedure: Affinity analysis by SPR was performed as previously described (Donaldson et al., 2009; Li et al., 2005, supra). […] SEC was performed using a Superdex 200 10/300 column (GE Healthcare). The proteins were mixed, incubated at room temperature for 20 min and applied to the column at 4° C.
The binding kinetics were also measured (FIG. 3).
The point mutation and wild type cQFD meditopes were generated as C-terminal fusions to SMT3 and cleaved with Ulp1 before the analysis.

cetuximab [1] = experiment: SPR (Biacore T100), variant meditopes over immobilized cetuximab IgG or cetuximab Fab; format: binding; conditions: in words
Procedure: The final volume after dialysis was carefully measured and absorbance measurements were taken to estimate the concentration (typically 1-10 mM). These stock solutions were used to make dilutions into HBS-EP buffer (10 mM Hepes pH 7.4, 150 mM NaCl, 3 mM EDTA and 0.05% v/v surfactant P20) for SPR measurements. […] Ligands were immobilized at low levels suitable for kinetic data. Typical kinetics SPR experiments were carried out at a flow rate of 30 μL/min using HBS-EP as both running and regeneration buffer. Kinetic parameters were calculated using the Biacore T100 evaluation software version 2.0.1.
Each chip was first characterized using a soluble fragment of the entire extracellular domain of EGFR (residues 1-621).

[2] = tested on: meditope-enabled M5A (M5A 8M); experiment: SPR, meditope variants with meditope-enabled M5A; format: binding; conditions: FIG. 58
cetuximab [3] = experiment: SPR binding affinity as a function of buffer pH; conditions: pH=4.0 to pH=8.0
Source text: FIG. 27 is a graph showing surface plasmon resonance (SPR) studies.

[4] = tested on: meditope-enabled trastuzumab (TM); experiment: SPR, MPL linker variants flowed over immobilized TM; conditions: 1:1 langmuir binding model
Procedure: Protein was purified by affinity and size exclusion chromatography. […] Kinetic information was calculated using Biaevaluation software using a 1:1 langmuir binding model.

SKBR3 cells = experiment: FACS, antibody and meditope binding to HER2 over-expressing cells; format: cell-based
Source text: Unbound antibody was washed twice and analyzed by flow cytometry.

MDA-MB-468 cells [5] = experiment: FACS, meditope binding to cetuximab pre-treated EGFR-expressing cells; format: cell-based
Procedure: In another study, the meditope-Fc fusion protein was labeled with Alexa488 as described above. […] Unbound antibody was washed and the cells were incubated with the meditope-Fc (600 nM, 180 nM, or 60 nM) for 30 minutes.

MDA-MB-468 cells [6] = experiment: MTT assay; format: cell-based; conditions: for cell growth: 48-hour incubation, 0.1 μM cetuximab, 0.01, 0.1 and 1 μM meditope or meditope-Fc
Procedure: 4000 MDA-MB-468 cells were placed in each well of a 96 well plate in 80 μl of medium.
The assay compared the enhancement of cetuximab-mediated inhibition of antigen-expressing tumor cell growth by meditope-Fc and by M425 (a mouse anti-EGFR antibody). 4000 MDA-MB-468 cells were placed in each well of a 96 well plate in 80 μl of medium. […] After a 48-hour incubation period, 10 μl MTT reagent was added and the mixture allowed to incubate for an additional 4 hours. The culture supernatant was removed, 100 μl of MTT crystal dissolving reagent added, and the plate read at 630 nm.

MDA MB-468 cells = experiment: FACS, cetuximab binding to EGFR-expressing cells in the presence of meditope; format: cell-based; conditions: meditope concentrations greater than 60 μM
Procedure: Labeled MOPS-21 was used as an isotype control. Cell fluorescence was determined using a FACS Calibur instrument (BD Biosciences).

sEGFRdIII = target: T1, sEGFRdIII (Homo sapiens, UniProt P00533); experiment: FRET titration of labeled cetuximab Fab with labeled sEGFRdIII; format: binding; conditions: in the presence of the cQFD meditope (66 μM)
T1 construct: soluble epidermal growth factor receptor domain III (sEGFRdIII) were expressed in Sf9 cells; made in house; host or cells: Sf9 cells
T1 sequence (P00533 335-538 limits assumed): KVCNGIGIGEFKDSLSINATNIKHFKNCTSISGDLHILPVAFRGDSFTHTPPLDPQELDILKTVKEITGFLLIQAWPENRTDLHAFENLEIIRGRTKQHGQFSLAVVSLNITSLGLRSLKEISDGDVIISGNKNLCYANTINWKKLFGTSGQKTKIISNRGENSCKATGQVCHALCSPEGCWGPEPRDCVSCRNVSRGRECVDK

## CC(C)C[C@@H]1NC(=O)[C@H](CC(=O)O)NC(=O)[C@H](Cc2ccccc2)NC(=O)[C@H](CCC(N)=O)NC(=O)[C@@H](N)CSSC[C@@H](C(=O)O)NC(=O)[C@H](CCCCN)NC(=O)[C@H](C)NC(=O)[C@H](CCCNC(=N)N)NC(=O)[C@H](CCCNC(=N)N)NC(=O)[C@H]([C@@H](C)O)NC(=O)[C@H](CO)NC1=O [Meditope 29] (H-CQFDLSTRRAKC-OH; disulfide 1-12)
Cetuximab Fab
  ΔΔG: 0.63 kcal/mol

## Q-FDLSTRRLK-X [Meditope 42, X = 7-aminoheptanoic acid; Lactam 1-Gln: 11-X]
Cetuximab [1]
  affinity compared to cQFD: decreased

## AcC-QFDLSTRRLR-CGGGSK [Meditope 31]
[2]
  binding to meditope-enabled antibody: confirming binding

## CC(C)C[C@@H]1NC(=O)[C@H](CCCNC(=N)N)NC(=O)[C@H](CCCNC(=N)N)NC(=O)[C@H]([C@@H](C)O)NC(=O)[C@H](CO)NC(=O)[C@H](CC(C)C)NC(=O)[C@H](CC(=O)O)NC(=O)[C@H](C(c2ccccc2)c2ccccc2)NC(=O)[C@H](CCC(N)=O)NC(=O)[C@@H](N)CSSC[C@@H](C(=O)O)NC(=O)[C@H](CCCCN)NC1=O [Meditope 17, C-QXDLSTRRLK-C]
[2]
  binding to meditope-enabled antibody: confirming binding

## C-QYDLSTRRLK-C (CQYDLSTRRLKC; disulfide 1-12) [Meditope 16, Y = tyrosine; Disulfide 1-Cys:12-Cys]
Cetuximab [3]
  pH dependence of affinity: marked decrease in affinity

## CC(C)C[C@@H]1NC(=O)[C@H](CCCNC(=N)N)NC(=O)[C@H](CCCNC(=N)N)NC(=O)[C@H]([C@@H](C)O)NC(=O)[C@H](CO)NC(=O)[C@H](CC(C)C)NC(=O)[C@H](CC(=O)O)NC(=O)[C@H](Cc2ccccc2)NC(=O)[C@H](CCC(N)=O)NC(=O)[C@@H](N)CSSC[C@@H](C(=O)O)NC(=O)[C@H](CCCCN)NC1=O [meditope]
[4]
  off-rate, kd: 0.01641 s⁻¹
  on-rate, ka: 13250 M⁻¹ s⁻¹

## CC(C)C[C@@H]1NC(=O)[C@H](CCCNC(=N)N)NC(=O)[C@H](CCCNC(=N)N)NC(=O)[C@H]([C@@H](C)O)NC(=O)[C@H](CO)NC(=O)[C@H](C(c2ccccc2)c2ccccc2)NC(=O)[C@H](CC(=O)O)NC(=O)[C@H](Cc2ccccc2)NC(=O)[C@H](CCC(N)=O)NC(=O)[C@@H](N)CSSC[C@@H](C(=O)O)NC(=O)[C@H](CCCCN)NC1=O [Meditope 18, C-QFDXSTRRLK-C]
[2]
  binding to meditope-enabled antibody: confirming binding

## meditope-Fc: cQFD fused to the N-terminus of an IgG Fc region through a 17 amino acid glycine/serine linker
SKBR3 cells
  meditope binding to antibody pre-bound cells: binds to the meditope-enabled trastuzumab, but not to wild-type trastuzumab
MDA-MB-468 cells [5]
  binding to cells pre-treated with cetuximab: higher affinity compared to the meditope monomer; also recorded: bound to the cells incubated with cetuximab, but not to cells incubated with M425
MDA-MB-468 cells [6]; 0.1 μM cetuximab with 0.2, 0.4 or 0.8 μM agent, 48 hours
  enhancement of cell-killing capacity of cetuximab: enhanced the cell-killing capacity of cetuximab to a similar degree
MDA-MB-468 cells [6]
  cell growth: inhibited cell growth

## MPL (L3): meditope SCQFDLSTRRLKC fused to Protein L moiety through linker GGGGS
SKBR3 cells
  meditope binding to antibody pre-bound cells: tight binding affinity
[4]
  off-rate, kd: 6.441e-05 s⁻¹
  on-rate, ka: 383200 M⁻¹ s⁻¹

## CC(C)C[C@@H]1NC(=O)[C@H](C)NC(=O)[C@H](CCCNC(=N)N)NC(=O)[C@H](CO)NC(=O)[C@H](CO)NC(=O)[C@H](CC(C)C)NC(=O)[C@H](CC(N)=O)NC(=O)[C@H](Cc2ccc(O)cc2)NC(=O)[C@H](CCC(N)=O)NC(=O)[C@@H](N)CSSC[C@@H](C(=O)O)NC(=O)[C@H](CCCCN)NC1=O [Meditope 2]
Cetuximab [1]
  affinity compared to cQFD: reduced
[2]
  binding to meditope-enabled antibody: confirming binding
Cetuximab [3]
  pH dependence of affinity: flat pH dependence

## SQFDLSTRRLKS [Meditope 55, No linkage; linear peptide]
Cetuximab [1]
  affinity compared to cQFD: reduced affinity

## CC(C)C[C@@H]1NC(=O)[C@H](CCCNC(=N)N)NC(=O)[C@H](CCCNC(=N)N)NC(=O)[C@H]([C@@H](C)O)NC(=O)[C@H](CO)NC(=O)[C@H](CC(C)C)NC(=O)[C@H](CC(=O)O)NC(=O)[C@H](Cc2ccccc2)NC(=O)[C@H](CCC(N)=O)NC(=O)[C@@H](N)CSSC[C@@H](C(=O)O)NC(=O)[C@H](CCCCN)NC1=O [Meditope 1]
MDA MB-468 cells
  changes in cetuximab binding to the cells: no significant changes
Cetuximab [3]
  pH dependence of affinity: slightly greater at higher pHs
MDA-MB-468 cells [6]
  cell growth: Neither addition of monovalent meditope (alone or with cetuximab), or meditope-Fc alone altered cell growth significantly
sEGFRdIII
  change in the binding constant of the Fab-sEGFRdIII interaction: no substantial change

B1: MPL F3A R8A (L3): MPL mutant weakening the affinity of the meditope portion, linker L3 (protein)
chain: SCQADLSTARLKCGGGGSEVTIKVNLIFADGKIQTAEFKGTFEEATAEAYRYAALLAKVNGEYTADLEDGGNHMNIKFAG
[4]
  off-rate, kd: 0.02239 s⁻¹
  on-rate, ka: 81350 M⁻¹ s⁻¹
[4]; read-out: Dissociation constant, KD
  Kd: 275 nM
